Experimental data as given in patent US10857105B2, “Compounds and compositions for intracellular delivery of therapeutic agents” (ModernaTX, Inc., priority 2017, dated 2020).
Each block holds one compound with its values, some of them ahead of it.

Assays:
[1] = Encapsulation efficiency of RNA in nanoparticle compositions (RIBOGREEN assay); type: physicochemical; settings: for % EE: compositions for subcutaneous administration
Outline: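 Lipid nanoparticles (ionisable lipid:DSPC:cholesterol:PEG-DMG 50:10:38.5:1.5 mol %) carrying N1-methylpseudouridine luciferase or hEPO mRNA diluted to about 5 μg/mL in TE, pH 7.5, with or without 2% Triton X-100, 15 min at 37° C. RiboGreen fluorescence (ex ~480, em ~520 nm) blank-subtracted; free RNA = intact/disrupted signal.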

[2] = Residual lipid levels in rat liver and spleen (UPLC-MS); type: in vivo; settings: for % Lipid Remaining in liver, 48 h, 2 mpk: assuming 300 g rat and 15 g liver
Method: At 48 h liver tissue was harvested for lipid quantification. To pre-weighed tissues, Milli-Q water was added (900 μL water per 100 mg tissue). Tissues were homogenized using an Omni probe homogenizer until uniform. 50 μL of samples and matrix calibration standards were aliquoted into a 96-well plate. 50 μL of blank matrix for matrix blanks and control blanks were aliquoted. 400 μL IS spiking solution were manually added to all samples except matrix blanks. 400 μL of 50:50 ACN:IPA were manually added to matrix-blanks. The plate was covered and the samples vortexed and centrifuged for 5 minutes at >3000 rpm. 200 μL of the samples were transferred into a clean 96-well plate for analysis. Samples were analyzed on a Waters Acquity UPLC using a Higgins Analytical Clipeus C8 column ([…], 30×2.1 mm) and a gradient of either 70-95% or 60-95% (Mobile Phase A: 5 mM ammonium formate in 50:50:1 H2O:MeOH:formic acid; Mobile Phase B: 5 mM ammonium formate in 100:1 MeOH:formic acid) over 1.3 min at […] (column temperature 55° C.). Detection was based on electrospray ionization (ESI) in positive mode using a Sciex API5500 Mass Spectrometer.
The expression of hEPO in rats intravenously administered a nanoparticle composition at a dose of 0.2 mpk or 2.0 mpk was measured at 6 hours. Table 16 summarize the ratio of hEPO expression levels using various nanoparticle compositions as compared to the hEPO expression level using MC3 formulation and the lipid levels in the liver measured 48 hours after administration, as described above. Tables 17 and 18 summarize the lipid levels in the liver and spleen measured 48 hours after administration of Compounds 28, 33, 53, and 54. Liver and spleen levels represent the average values calculated for 3 rats in each group. As is shown in Tables 17 and 18, less than 10% of Compounds 28, 33, 53, and 54 remained in the liver after 48 hours, while greater than 60% of MC3 remained.
Table 19A summarizes the hEPO expression, IP-10 induction, liver and spleen levels, and alanine aminotransferase (ALT) and aspartate aminotransferase (AST) measured upon intravenous administration of formulations including Compounds 48, 49, and 50 to rat at 0.2 and 2 mpk and hEPO mRNA. hEPO concentrations were measured 6 hours after administration, while cytokine induction and liver and spleen levels were measured 48 hours after administration. hEPO and IP-10 concentrations are presented in pg/ml, while liver levels are provided in ng/g. ALT and AST levels are presented in international units.
The expression of hEPO and lipid levels in the liver and spleen in rats intravenously administered a nanoparticle composition at a dose of 0.2 mpk was measured at various time points. Compounds 18 and 25 were selected for comparison with MC3. Lipids were formulated according to the standard MC3 formulation described above. Rats were administered intravenously a single 0.2 mpk dose and expression monitored at 0.25, 0.5, 1, 2, 4, 8, 24, and 48 hours after administration.

[3] = Pharmacokinetic study of lipids in plasma, liver and spleen (compound 18, compound 25, MC3); settings: for clearance from liver tissue: rat pharmacokinetic study, 24-48 hours; for half-life / AUC / Cmax / Tmax: male, Sprague-Dawley, rat, iv; for HL: table titled mouse
[4] = tested on: hEPO mRNA; assay: hEPO expression after intramuscular administration to mice; type: in vivo; settings: for Novel lipid/MC3 ratio, i.m. hEPO: Table 3G, intramuscular, 6 hr. timepoint, relative to MC3
Method: The numbers 1-11 in this figure correspond to MC3, Compounds 18, 25, 30, 108-112, 60, and 122 respectively.
The expression of hEPO and cytokine induction in mice intravenously administered a nanoparticle composition at a dose of 0.5 mpk were measured at 3, 6, and 24 hours. […] The expression of hEPO in mice intramuscularly administered a nanoparticle composition from Table 1B at a dose of 0.01 mpk were measured at 3, 6, and 24 hours. […] (see

[5] = Table 1A, lipid:DSPC:cholesterol:PEG-DMG 50:10:38.5:1.5 mol %
[6] = Table 1B, formulated with hEPO mRNA

- EE [1, 5]: 95.80%
- EE [1, 6]: 97.92%
- % Lipid Remaining in liver, 48 h, 2 mpk ([2]; rats, 48 h): 1.32%
- half-life ([3]; liver): 414 min
Compound: CCCCCCCCCCCOC(=O)CCCCCN(CCO)CCCCCCCC(=O)OC(CCCCCCCC)CCCCCCCC [Compound 25, Heptadecan-9-yl 8-((2-hydroxyethyl)(6-oxo-6-(undecyloxy)hexyl)amino)octanoate]
- Novel lipid/MC3 ratio, i.m. hEPO [4]: 7.1
- clearance from liver tissue ([3]; liver): efficiently cleared from liver tissue by 24 hours

- EE [1, 5]: 95.69%
- EE [1, 6]: 96.32%
- % Lipid Remaining in liver, 48 h, 2 mpk ([2]; rats, 48 h): <0.01%
Compound: CCCCCCCCCOC(=O)CCCCCCCN(CCO)CCCCCCCOC(=O)C(CCCCCCCC)CCCCCCCC [Compound 30, 7-((2-Hydroxyethyl)(8-(nonyloxy)-8-oxooctyl)amino)heptyl 2-octyldecanoate]
- Novel lipid/MC3 ratio, i.m. hEPO [4]: 9.2

- EE [1, 5]: 96.55%
- % Lipid Remaining in liver, 48 h, 2 mpk ([2]; rats, 48 h): 7.22%
Compound: CCCCCCCCC(C)OC(=O)CCCCCCCN(CCO)CCCCCCCC(=O)OC(CCCCCCCC)CCCCCCCC (centres unmarked) [Compound 48, decan-2-yl 8-((8-(heptadecan-9-yloxy)-8-oxooctyl)(2-hydroxyethyl)amino)octanoate]

More lines, now with the values behind:

Compound: CCCCCCCCCN(CCO)CCCCCCCC(=O)OC(CCCCCCCC)CCCCCCCC [Compound 3, Heptadecan-9-yl 8-((2-hydroxyethyl)(nonyl)amino)octanoate]
- EE [1, 5]: 92.25%
- % Lipid Remaining in liver, 48 h, 2 mpk ([2]; rats, 48 h): 14%

Compound: CCCCCCCCCOC(=O)CCCCCCCN(CCO)CCCCCCCC(=O)OC(CCCCCCCC)CCCCCCCC [Compound 18, Heptadecan-9-yl 8-((2-hydroxyethyl)(8-(nonyloxy)-8-oxooctyl)amino)octanoate]
- EE [1, 6]: 96.95%
- % Lipid Remaining in liver, 48 h, 2 mpk ([2]; rats, 48 h): 0.018%
- clearance from liver tissue ([3]; liver): efficiently cleared from liver tissue by 24 hours

Compound: CCCCCC/C=C\COC(=O)CCCCCCCN(CCO)CCCCCCCC(=O)OC(CCCCCCCC)CCCCCCCC [Compound 24, Heptadecan-9-yl (Z)-8-((2-hydroxyethyl) (8-(non-2-en-1-yloxy)-8-oxooctyl)amino)octanoate]
- % Lipid Remaining in liver, 48 h, 2 mpk ([2]; rats, 48 h): 0.016%

Compound: CCCCCCCCCOC(=O)CCCN(CCO)CCCCCCCC(=O)OC(CCCCCCCC)CCCCCCCC [Compound 26, Heptadecan-9-yl 8-((2-hydroxyethyl)(4-(nonyloxy)-4-oxobutyl)amino) octanoate]
- % Lipid Remaining in liver, 48 h, 2 mpk ([2]; rats, 48 h): 20%

Compound: CCCCCC=CCC=CCCCCCCCCC(CCCCCCCCC=CCC=CCCCCC)OC(=O)CCCN(C)C (centres unmarked) [MC3, heptatriaconta-6,9,28,31-tetraen-19-yl 4-(dimethylamino)butanoate, reference compound]
- EE [1, 5]: 97.3%
- EE [1, 6]: 99.01%
- % EE ([1]; Table 1C): 98.2%
- % EE ([1]; Table 1D, # formulated with hEPO mRNA): 98.7%
- % EE ([1]; Table 1E): 98%
- EE ([1]; lipid:DSPC:Chol:PEG-DMG (50:10:38.5:1.5), hEPO mRNA): 97.22%
- EE ([1]; nanoparticle composition with hEPO mRNA (Table 30)): 91.66%
- Fold increase in hEPO concentration relative to MC3 ([4]; mice, intramuscular 0.01 mpk, 6 hr time point): 1
- % dose remaining, liver, 24 h ([2]; Table 19B, liver, 24 h): 44%
- % lipid remaining in liver after 48 hours ([2]; liver, 48 hours): 87%
- % Lipid Remaining in liver, 48 h, 2 mpk ([2]; rats, 48 h): 87%
- % remaining dose in liver, 48 h ([2]; rats, 48 h): 74%
- Lipid remaining in the liver after 48 hours ([2]; rats, intravenous, 0.2 mpk or 2.0 mpk, 48 hours): greater than 60%
- HL ([3]; Liver, * = 2 terminal datapoints estimation): 52.5* hr
- HL ([3]; Plasma): 8.4 h
- HL ([3]; Spleen, * = 2 terminal datapoints estimation): 33.3* hr
- AUC ([3]; liver): 1410 µg·h/mL
- Cmax ([3]; liver): 33000 ng/mL
- Tmax ([3]; liver): 24 h
- half-life ([3]; liver): > 3000 min
- AUC ([3]; plasma): 69.1 µg·h/mL
- Cmax ([3]; plasma): 28900 ng/mL
- Tmax ([3]; plasma): 0.5 h
- AUC ([3]; spleen): 787 µg·h/mL
- Cmax ([3]; spleen): 21200 ng/mL
- Tmax ([3]; spleen): 8 h
- clearance from liver tissue ([3]; liver): still present at high concentrations at 48 hours

Compound: Nonyl 8-((6-(heptadecan-9-yloxy)-6-oxohexyl)(2-hydroxyethyl)amino) octanoate [Compound 27]
- EE [1, 5]: 94.27%
